In BindingDB's records for doi:10.1016/j.ejmech.2019.02.074 (University of Hull, 2019):
Several values for one entry are separate records, joined by “and”; a condition that tells them apart may be missing. Identical values can stand only once.

Target: Transient receptor potential cation channel subfamily A member 1 (Homo sapiens, UniProt O75762)
Test: Antagonist activity at human TRPA1 expressed in HEK293 cells assessed as inhibition of CA-induced increase in calcium influx incubated for 10 mins prior to CA addition by Fluo-4-AM dye based fluorescence assayy

Transient receptor potential cation channel subfamily A member 1, sequence (O75762 whole entry): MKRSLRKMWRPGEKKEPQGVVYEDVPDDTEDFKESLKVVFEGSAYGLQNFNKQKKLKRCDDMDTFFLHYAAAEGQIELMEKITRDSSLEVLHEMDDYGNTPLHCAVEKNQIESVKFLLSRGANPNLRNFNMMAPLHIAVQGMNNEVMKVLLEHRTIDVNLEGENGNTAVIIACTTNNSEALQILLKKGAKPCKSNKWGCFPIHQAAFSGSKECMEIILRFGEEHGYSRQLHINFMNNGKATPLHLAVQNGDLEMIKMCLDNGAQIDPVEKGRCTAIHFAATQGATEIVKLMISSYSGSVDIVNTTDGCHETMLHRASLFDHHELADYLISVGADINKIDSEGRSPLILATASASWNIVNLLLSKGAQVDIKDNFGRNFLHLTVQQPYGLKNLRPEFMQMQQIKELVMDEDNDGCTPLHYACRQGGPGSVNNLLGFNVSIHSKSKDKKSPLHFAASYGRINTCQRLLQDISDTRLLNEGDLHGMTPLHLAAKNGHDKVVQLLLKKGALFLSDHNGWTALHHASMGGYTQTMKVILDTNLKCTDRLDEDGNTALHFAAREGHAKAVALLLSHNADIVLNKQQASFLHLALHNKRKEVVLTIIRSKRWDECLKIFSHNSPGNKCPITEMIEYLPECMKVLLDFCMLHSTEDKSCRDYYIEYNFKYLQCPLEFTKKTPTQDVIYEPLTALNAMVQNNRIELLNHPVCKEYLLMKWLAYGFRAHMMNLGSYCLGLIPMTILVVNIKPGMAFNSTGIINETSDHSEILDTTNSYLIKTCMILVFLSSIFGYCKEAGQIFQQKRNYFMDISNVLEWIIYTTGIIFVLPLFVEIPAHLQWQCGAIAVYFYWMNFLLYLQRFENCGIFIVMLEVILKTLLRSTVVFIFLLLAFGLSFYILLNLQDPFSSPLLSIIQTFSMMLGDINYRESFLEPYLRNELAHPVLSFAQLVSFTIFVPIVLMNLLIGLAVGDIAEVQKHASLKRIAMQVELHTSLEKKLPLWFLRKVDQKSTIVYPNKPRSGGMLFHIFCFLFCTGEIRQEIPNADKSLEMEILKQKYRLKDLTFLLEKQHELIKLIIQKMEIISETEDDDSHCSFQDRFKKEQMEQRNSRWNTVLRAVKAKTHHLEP

SMILES | IC50
O=C(/C=C/c1ccc(Br)cc1)Nc1ccccc1C(=O)O | 10 µM
CC(=Cc1ccc(Cl)cc1)C(C)N=O (configuration not stated) [4-(4-chlorophenyl)-3-methylbut-3-en-2-one oxime] | 4.47 µM and 4.46 µM
